How the values were obtained:
[1] = biological target: T1, pseudo-kinase domain (JH2, amino-acids 536-812) of human Wild Type JAK2 (Homo sapiens, UniProt O60674, F794H/W659A/W777A); assay: JAK2 LanthaScreen JH2-WT Binding Assay; conditions: JAK2 JH2-WT 0.145 nM, 50 nM tracer, 1 hour at 25° C.; read-out: JH2 BIND WT
T1 construct: pseudo-kinase domain (JH2, amino-acids 536-812 with 3 surface mutations W659A, W777A, F794H); His (C); purchased BPS Bioscience 79463; host or cells: baculovirus expression system
Experimental: Example B. JAK2 LanthaScreen JH2-WT Binding Assay
JAK2 JH2-WT binding assay utilizes pseudo-kinase domain (JH2, amino-acids 536-812 with 3 surface mutations W659A, W777A, F794H) of human Wild Type JAK2 expressed as C-terminal His-Avi-tagged, biotinylated protein in a baculovirus expression system (BPS Bioscience, Catalog #79463). The assay was conducted in black 384-well polystyrene plates in a final reaction volume of 20 μL. JAK2 JH2-WT (0.145 nM) was incubated with compounds (100 nL serially diluted in DMSO) in the presence of 50 nM Fluorescent JAK2-JH2 Tracer (MedChem Express Catalog #HY-102055) and 0.25 nM Streptavidin-Tb cryptate (Cisbio Part #610SATLB) in assay buffer (50 mM Tris, pH=7.5, 10 mM MgCl2, 0.01% Brij-35, 0.1% BSA, 1 mM EGTA, 5% Glycerol and 5 mM DTT). Non-specific binding was accessed in the presence of 2 mM ATP. After incubation for 1 hour at 25° C., LanthaScreen signals were read on a PHERAstar FS plate reader (BMG LABTECH). Data was analyzed with IDBS XLfit and GraphPad Prism 5.0 software using a four parameter dose response curve to determine IC50 for each compound.

[2] = biological target: T2, catalytic domain (JH1, amino acids 826-1132) of human JAK2 (Homo sapiens, UniProt O60674); assay: JAK2 LanthaScreen JH1 Binding Assay; conditions: JAK2 JH1 1.5 nM, 50 nM tracer, 2 hours at 25° C.; read-out: JH1 BIND
T2 construct: catalytic domain (JH1, amino acids 826-1132) of human JAK2; FLAG (N); biotin (biotinylated); purchased Carna Biosciences 08-445-20N; host or cells: baculovirus expression system
Experimental: Example A. JAK2 LanthaScreen JH1 Binding Assay
JAK2 JH1 binding assay utilizes catalytic domain (JH1, amino acids 826-1132) of human JAK2 expressed as N-terminal FLAG-tagged, biotinylated protein in a baculovirus expression system (Carna Biosciences, Product #08-445-20N). The assay was conducted in black 384-well polystyrene plates in a final reaction volume of 20 μL. JAK2 JH1 (1.5 nM) was incubated with compounds (100 nL serially diluted in DMSO) in the presence of 50 nM fluorescent JAK2-JH1 tracer and 0.5 nM Streptavidin-Tb cryptate (Cisbio Part #610SATLB) in assay buffer (50 mM Tris, pH=7.5, 10 mM MgCl2, 0.01% Brij-35, 0.1% BSA, 1 mM EGTA, 5% Glycerol and 5 mM DTT). Non-specific binding was accessed in the presence of 2 mM ATP. After incubation for 2 hours at 25° C., LanthaScreen signals were read on a PHERAstar FS plate reader (BMG LABTECH). Data was analyzed with IDBS XLfit and GraphPad Prism 5.0 software using a four parameter dose response curve to determine IC50 for each compound.

[3] = biological target: catalytic domain (JH1, amino acids 808-1132) of human JAK2 (Homo sapiens, UniProt O60674); assay: JAK2 HTRF Enzyme Activity Assay; format: biochemical; conditions: ATP 30 µM, 60 minutes at 25° C.; read-out: V617F ENZ 30 UM
[4] = biological target: T3, pseudo-kinase domain (JH2, amino-acids 536-812) of human V617F mutant JAK2 (Homo sapiens, UniProt O60674, F794H/V617F/W659A/W777A); assay: JAK2 LanthaScreen JH2-V617F Binding Assay; conditions: JAK2 JH2-V617F 0.26 nM, 50 nM tracer, 1 hour at 25° C.; read-out: JH2 BIND V617F
T3 construct: pseudo-kinase domain (JH2, amino-acids 536-812 with 3 surface mutations W659A, W777A, F794H); His (C); purchased BPS Bioscience 79498; host or cells: baculovirus expression system
Method in brief: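 Biotinylated His-Avi-tagged construct, baculovirus-expressed, at 0.26 nM; compounds competed against 50 nM fluorescent JH2 tracer with 0.25 nM streptavidin-Tb in Tris pH 7.5 buffer. Non-specific binding defined with 2 mM ATP. Read after 1 h at 25° C by TR-FRET; IC50 from four-parameter fit.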

T1 sequence (O60674 536-812 W659A/W777A/F794H): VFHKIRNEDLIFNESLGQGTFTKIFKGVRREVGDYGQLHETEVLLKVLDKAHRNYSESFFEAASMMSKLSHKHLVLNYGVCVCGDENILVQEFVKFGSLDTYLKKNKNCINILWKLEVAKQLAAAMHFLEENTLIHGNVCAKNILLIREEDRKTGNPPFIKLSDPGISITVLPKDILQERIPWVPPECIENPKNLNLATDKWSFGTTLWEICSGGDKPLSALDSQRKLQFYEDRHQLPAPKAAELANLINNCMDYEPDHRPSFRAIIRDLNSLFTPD
T3 sequence (O60674 536-812 V617F/W659A/W777A/F794H): as the sequence (O60674 536-812 W659A/W777A/F794H) above, with V82F counted along it
Sequence of catalytic domain (JH1, amino acids 808-1132) of human JAK2 (O60674 808-1132 limits assumed): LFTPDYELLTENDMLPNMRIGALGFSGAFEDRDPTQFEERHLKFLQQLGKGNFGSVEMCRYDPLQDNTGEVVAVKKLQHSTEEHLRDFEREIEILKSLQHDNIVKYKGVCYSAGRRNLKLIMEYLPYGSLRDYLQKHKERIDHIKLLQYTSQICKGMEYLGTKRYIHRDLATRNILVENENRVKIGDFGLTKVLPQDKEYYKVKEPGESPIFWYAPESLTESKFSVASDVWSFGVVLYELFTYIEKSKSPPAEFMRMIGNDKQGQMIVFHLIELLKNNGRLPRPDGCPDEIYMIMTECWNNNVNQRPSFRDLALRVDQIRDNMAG
T2 sequence (O60674 826-1132): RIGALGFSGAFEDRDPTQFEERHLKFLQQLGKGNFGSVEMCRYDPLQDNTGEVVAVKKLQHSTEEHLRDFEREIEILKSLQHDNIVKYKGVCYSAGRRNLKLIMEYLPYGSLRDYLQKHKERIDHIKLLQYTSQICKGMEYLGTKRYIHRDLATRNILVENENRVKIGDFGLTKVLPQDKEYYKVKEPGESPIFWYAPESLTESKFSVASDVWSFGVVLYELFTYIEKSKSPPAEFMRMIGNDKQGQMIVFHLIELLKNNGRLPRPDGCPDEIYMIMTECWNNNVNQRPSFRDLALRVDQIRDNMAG

Structure (SMILES)	IC50 [1]	IC50 [2]	IC50 [3]	IC50 [4]
[2H]C([2H])([2H])n1c(=O)n([C@H]2CC[C@@](C)(NC(=O)C3CC3)CC2)c2cc(Nc3ccc4nn(C)c(-c5cnn(C(F)(F)F)c5)c4n3)ncc21 (single isomer, unassigned) [Example 91, N-((1s,4s)-1-Methyl-4-(3-(methyl-d3)-6-((2-methyl-3-(1-(trifluoromethyl)-1H-pyrazol-4-yl)-2H-pyrazolo[4,3-b]pyridin-5-yl)amino)-2-oxo-2,3-dihydro-1H-imidazo[4,5-c]pyridin-1-yl)cyclohexyl)cyclopropanecarboxamide]	≤ 10 nM	> 1000 nM	10 to 100 nM	≤ 10 nM
[2H]C([2H])([2H])n1c(=O)n([C@]2([2H])CC[C@@H](NC(=O)OC)C2)c2cc(Nc3cc(-c4cnccc4C(F)(F)F)c4nc(C)c(-c5cnn(C(F)F)c5)n4n3)ncc21 (single isomer, unassigned) [Example 97]	≤ 10 nM	> 1000 nM	500 to 1000 nM	≤ 10 nM
CCOC(=O)c1cnc(Nc2cc(Nc3cc4c(cn3)n(C)c(=O)n4[C@@H]3CC[C@@H](NC(=O)OC)C3)cc(-c3cccc(C#N)c3)c2)o1 [Example 1, Ethyl 2-((3′-cyano-5-((1-((1R,3R)-3-((methoxycarbonyl)amino)cyclopentyl)-3-methyl-2-oxo-2,3-dihydro-1H-imidazo[4,5-c]pyridin-6-yl)amino)-[1,1′-biphenyl]-3-yl)amino)oxazole-5-carboxylate]	10 to 100 nM	> 1000 nM	> 1000 nM	100 to 500 nM
COC(=O)N[C@@H]1CC[C@@H](n2c(=O)n(C)c3cnc(Nc4cc(NC(=O)C5(F)CCOCC5)cc(-c5cccc(C#N)c5)c4)cc32)C1 [Example 2, Methyl ((1R,3R)-3-(6-((3′-cyano-5-(4-fluorotetrahydro-2H-pyran-4-carboxamido)-[1,1′-biphenyl]-3-yl)amino)-3-methyl-2-oxo-2,3-dihydro-1H-imidazo[4,5-c]pyridin-1-yl)cyclopentyl)carbamate]	≤ 10 nM	> 1000 nM	> 1000 nM	≤ 10 nM
[2H]C([2H])([2H])n1c(=O)n([C@@H]2CC[C@@H](NC(=O)OC)C2)c2cc(Nc3cc(C(=O)N4CC5(CCN5C)C4)c4cccc(C(F)(F)F)c4n3)ncc21 [Example 3, Methyl ((1R,3R)-3-(3-(methyl-d3)-6-((4-(1-methyl-1,6-diazaspiro[3.3]heptane-6-carbonyl)-8-(trifluoromethyl)quinolin-2-yl)amino)-2-oxo-2,3-dihydro-1H-imidazo[4,5-c]pyridin-1-yl)cyclopentyl)carbamate]	≤ 10 nM	> 1000 nM	500 to 1000 nM	≤ 10 nM
COC(=O)N[C@@H]1CC[C@@H](n2c(=O)n(C)c3cnc(Nc4cccc(-c5ccc(CO)c(C)c5)n4)cc32)C1 [Example 4, Methyl ((1R,3R)-3-(6-((6-(4-(hydroxymethyl)-3-methylphenyl)pyridin-2-yl)amino)-3-methyl-2-oxo-2,3-dihydro-1H-imidazo[4,5-c]pyridin-1-yl)cyclopentyl)carbamate]	≤ 10 nM	> 1000 nM	> 1000 nM	≤ 10 nM
COC(=O)N[C@@H]1CC[C@@H](n2c(=O)n(C)c3cnc(Nc4cccc(-c5ccc(OC)nc5)n4)cc32)C1 [Example 5, Methyl ((1R,3R)-3-(6-((6′-methoxy-[2,3′-bipyridin]-6-yl)amino)-3-methyl-2-oxo-2,3-dihydro-1H-imidazo[4,5-c]pyridin-1-yl)cyclopentyl)carbamate]	≤ 10 nM	> 1000 nM	> 1000 nM	≤ 10 nM
[2H]C([2H])([2H])n1c(=O)n([C@@H]2CC[C@@H](NC(=O)OC)C2)c2cc(Nc3cc(C(=O)N4CCC(C#N)CC4)c4cccc(C(F)(F)F)c4n3)ncc21 [Example 6, Methyl ((1R,3R)-3-(6-((4-(4-cyanopiperidine-1-carbonyl)-8-(trifluoromethyl)quinolin-2-yl)amino)-3-(methyl-d3)-2-oxo-2,3-dihydro-1H-imidazo[4,5-c]pyridin-1-yl)cyclopentyl)carbamate]	≤ 10 nM	100 to 500 nM	100 to 500 nM	≤ 10 nM
[2H]C([2H])([2H])n1c(=O)n([C@@H]2CC[C@]([2H])(NC(=O)OC)C2)c2cc(Nc3cc(-c4cnccc4C(F)(F)F)cc(-c4ncc(C(C)(C)O)s4)n3)ncc21 [Example 165, Methyl ((1S,3R)-3-(6-((6′-(5-(2-hydroxypropan-2-yl)thiazol-2-yl)-4-(trifluoromethyl)-[3,4′-bipyridin]-2′-yl)amino)-3-(methyl-d3)-2-oxo-2,3-dihydro-1H-imidazo[4,5-c]pyridin-1-yl)cyclopentyl-1-d)carbamate]			> 1000 nM	≤ 10 nM
[2H]C([2H])([2H])n1c(=O)n([C@@H]2CC[C@@]([2H])(NC(=O)OC)C2)c2cc(Nc3cc(C4CCN(C)CC4)cc(-c4ncc(C(C)(C)O)s4)n3)ncc21 [Example 166, Methyl ((1R,3R)-3-(6-((6-(5-(2-hydroxypropan-2-yl)thiazol-2-yl)-4-(1-methylpiperidin-4-yl)pyridin-2-yl)amino)-3-(methyl-d3)-2-oxo-2,3-dihydro-1H-imidazo[4,5-c]pyridin-1-yl)cyclopentyl-1-d)carbamate]			> 1000 nM	≤ 10 nM
[2H]C([2H])([2H])n1c(=O)n([C@@H]2CC[C@@]([2H])(NC(=O)OC)C2)c2cc(Nc3cc(-c4cccnc4C(F)(F)F)cc(-c4ncc(C(C)(C)O)s4)n3)ncc21 [Example 167, Methyl ((1R,3R)-3-(6-((6′-(5-(2-hydroxypropan-2-yl)thiazol-2-yl)-2-(trifluoromethyl)-[3,4′-bipyridin]-2′-yl)amino)-3-(methyl-d3)-2-oxo-2,3-dihydro-1H-imidazo[4,5-c]pyridin-1-yl)cyclopentyl-1-d)carbamate]			> 1000 nM	≤ 10 nM
[2H]C([2H])([2H])n1c(=O)n([C@@H]2CC[C@](C)(NC(C)=O)C2)c2cc(Nc3cc(-c4cnccc4C(F)(F)F)c4nc(C)c(-c5cnn(C(F)F)c5)n4n3)ncc21 [Example 168, N-((1S,3R)-3-(6-((3-(1-(Difluoromethyl)-1H-pyrazol-4-yl)-2-methyl-8-(4-(trifluoromethyl)pyridin-3-yl)imidazo[1,2-b]pyridazin-6-yl)amino)-3-(methyl-d3)-2-oxo-2,3-dihydro-1H-imidazo[4,5-c]pyridin-1-yl)-1-methylcyclopentyl)acetamide]			> 1000 nM	≤ 10 nM
[2H]C([2H])([2H])n1c(=O)n([C@@H]2CC[C@@]([2H])(NC(=O)OC)C2)c2cc(Nc3cc(C(C)(C)O)c4nc(C)n(-c5cnn(C(F)F)c5)c4n3)ncc21 [Example 169, Methyl ((1R,3R)-3-(6-((3-(1-(difluoromethyl)-1H-pyrazol-4-yl)-7-(2-hydroxypropan-2-yl)-2-methyl-3H-imidazo[4,5-b]pyridin-5-yl)amino)-3-(methyl-d3)-2-oxo-2,3-dihydro-1H-imidazo[4,5-c]pyridin-1-yl)cyclopentyl-1-d)carbamate]			> 1000 nM	≤ 10 nM

Reference: patent US20240317744A1, “Bicyclic Ureas As Kinase Inhibitors” (Incyte Corporation, priority 2023, published 2024)
